Test results reported in US8697683B2, “Azetidinyl diamides as monoacylglycerol lipase inhibitors” (Janssen Pharmaceutica, NV, priority 2009, dated 2014).

Target: T1, MGL (Rattus norvegicus, UniProt Q8R431)
T1 construct: one g rat brain was homogenized
T1 sequence (Q8R431 1-303): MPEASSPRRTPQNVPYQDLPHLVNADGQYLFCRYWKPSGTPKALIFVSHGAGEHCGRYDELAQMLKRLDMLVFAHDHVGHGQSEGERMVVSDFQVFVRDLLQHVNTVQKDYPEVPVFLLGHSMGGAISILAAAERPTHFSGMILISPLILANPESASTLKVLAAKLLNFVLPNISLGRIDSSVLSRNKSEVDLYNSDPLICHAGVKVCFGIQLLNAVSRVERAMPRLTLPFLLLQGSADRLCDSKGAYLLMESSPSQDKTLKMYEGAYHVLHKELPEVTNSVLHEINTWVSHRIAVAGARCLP
Test: 2-AG Accumulation Assay (rat brain homogenate)
Format: biochemical
Details: percent of vehicle 2-AG accumulation; for Rat Brain 2AG % VehCntrl (%) @10 μM: compound 10 μM; for Rat Brain 2AG % VehCntrl (%) @1 μM: compound 1 μM

SMILES	Rat Brain 2AG % VehCntrl (%) @10 μM [%]	Rat Brain 2AG % VehCntrl (%) @1 μM [%]
O=C(c1ccccc1)N1CCN(C2CN(C(=O)c3ccc(NCc4ccc(F)c(C(F)(F)F)c4)cc3)C2)CC1 [Cpd 494, N-[4-Fluoro-3-(trifluoromethyl)benzyl]-4-({3-[4-(phenylcarbonyl)piperazin-1-yl]azetidin-1-yl}carbonyl)aniline]	1121	–
COc1c(C(=O)N2CC(N3CCN(C(=O)c4nccs4)CC3)C2)sc2cc(C(F)(F)F)ccc12 [Cpd 649, 1-(1-{[3-Methoxy-6-(trifluoromethyl)-1-benzothiophen-2-yl]carbonyl}azetidin-3-yl)-4-(1,3-thiazol-2-ylcarbonyl)piperazine]	–	1017
O=C(c1ccc2nc(N3CCC(F)(F)CC3)sc2c1)N1CC(N2CCN(C(=O)c3nccs3)CC2)C1 [Cpd 671]	–	1035
O=C(c1ccc2c(c1)CCN(Cc1cccc(C(F)(F)F)c1)C2)N1CC(N2CCN(C(=O)c3nccs3)CC2)C1 [Cpd 879]	–	1027
O=C(c1nccs1)N1CCN(C2CN(C(=O)c3sc4cc(C(F)(F)F)ccc4c3F)C2)CC1 [Cpd 895, 1-(1-{[3-Fluoro-6-(trifluoromethyl)-1-benzothiophen-2-yl]carbonyl}azetidin-3-yl)-4-(1,3-thiazol-2-ylcarbonyl)piperazine]	–	1207
Cc1c(C(=O)N2CC(N3CCN(C(=O)c4nccs4)CC3)C2)sc2ccc(C(F)(F)F)cc12 [Cpd 897]	–	1234
Cc1c(C(=O)N2CC(N3CCN(C(=O)c4nccs4)CC3)C2)sc2cc(C(F)(F)F)ccc12 [Cpd 899, 1-(1-{[3-Methyl-6-(trifluoromethyl)-1-benzothiophen-2-yl]carbonyl}azetidin-3-yl)-4-(1,3-thiazol-2-ylcarbonyl)piperazine]	–	1092
O=C(c1ccc2c(c1)CCN(S(=O)(=O)c1ccc(C(F)(F)F)cc1)C2)N1CC(N2CCN(C(=O)c3nccs3)CC2)C1 [Cpd 928]	–	1207
Cc1c(Cc2ccc(C(F)(F)F)cc2)cccc1C(=O)N1CC(N2CCN(C(=O)c3nccs3)CC2)C1 [Cpd 1008]	–	1125
O=C(c1nn(-c2ccc(Cl)cc2Cl)c2c1CCC/C2=C\c1ccc(Cl)cc1)N1CC(N2CCN(C(=O)C(F)(F)F)CC2)C1 [Cpd 1020]	–	135
Cc1cn(-c2ccccc2)c2ccc(C(=O)N3CC(N4CCN(C(=O)c5nccs5)CC4)C3)cc12 [Cpd 1054]	–	1008
Cn1cc(-c2cccc(C(F)(F)F)c2)c2ccc(C(=O)N3CC(N4CCN(C(=O)c5cscn5)CC4)C3)cc21 [Cpd 1084]	–	1165
Cn1cc(-c2cccc(C(F)(F)F)c2)c2ccc(C(=O)N3CC(N4CCN(C(=O)c5nccs5)CC4)C3)cc21 [Cpd 1100]	–	1133
Cn1cc(-c2ccccc2)c2ccc(C(=O)N3CC(N4CCN(C(=O)c5nccs5)CC4)C3)cc21 [Cpd 1132, 1-Methyl-3-phenyl-6-({3-[4-(1,3-thiazol-2-ylcarbonyl)piperazin-1-yl]azetidin-1-yl}carbonyl)-1H-indole]	–	1259
O=C(c1ccc2nc(-c3cccc(C(F)(F)F)c3)oc2c1)N1CC(N2CCN(C(=O)c3nccs3)CC2)C1 [Cpd 1158, 6-({3-[4-(1,3-Thiazol-2-ylcarbonyl)piperazin-1-yl]azetidin-1-yl}carbonyl)-2-[3-(trifluoromethyl)phenyl]-1,3-benzoxazole]	–	1623
O=C(c1ccc2c(ccn2-c2ncccn2)c1)N1CC(N2CCN(C(=O)c3nccs3)CC2)C1 [Cpd 1174, 1-Pyrimidin-2-yl-5-({3-[4-(1,3-thiazol-2-ylcarbonyl)piperazin-1-yl]azetidin-1-yl}carbonyl)-1H-indole]	–	1021
Cn1cc(-c2ccc(F)cc2)c2ccc(C(=O)N3CC(N4CCN(C(=O)c5nccs5)CC4)C3)cc21 [Cpd 1318, 3-(4-Fluorophenyl)-1-methyl-6-({3-[4-(1,3-thiazol-2-ylcarbonyl)piperazin-1-yl]azetidin-1-yl}carbonyl)-1H-indole]	–	1282
O=C(c1ccc(-c2nc(-c3cccc(C(F)(F)F)c3)cs2)cc1)N1CC(N2CCN(C(=O)c3nccs3)CC2)C1 [Cpd 1332]	–	1168
O=C(c1ccc2c(-c3cccc(C(F)(F)F)c3)c[nH]c2c1)N1CC(N2CCN(C(=O)c3nccs3)CC2)C1 [Cpd 1341, 6-({3-[4-(1,3-Thiazol-2-ylcarbonyl)piperazin-1-yl]azetidin-1-yl}carbonyl)-3-[3-(trifluoromethyl)phenyl]-1H-indole]	–	1149
O=C(c1nccs1)N1CCN(C2CN(C(=O)c3ccc4c(ccn4-c4ccc(F)cc4)c3F)C2)CC1 [Cpd 1348, 4-Fluoro-1-(4-fluorophenyl)-5-({3-[4-(1,3-thiazol-2-ylcarbonyl)piperazin-1-yl]azetidin-1-yl}carbonyl)-1H-indole]	–	1428
O=C(c1ccc2c(ccn2-c2cccc(C(F)(F)F)c2)c1)N1CC(N2CCN(C(=O)c3nccs3)CC2)C1 [Cpd 1356, 5-({3-[4-(1,3-Thiazol-2-ylcarbonyl)piperazin-1-yl]azetidin-1-yl}carbonyl)-1-[3-(trifluoromethyl)phenyl]-1H-indole]	–	1420

The next lines start with the values.

Rat Brain 2AG % VehCntrl (%) @10 μM [%]	Rat Brain 2AG % VehCntrl (%) @1 μM [%]	SMILES
1591	–	O=C(c1ccc(OCc2cccc(Cl)c2Cl)c(F)c1)N1CC(N2CCN(C(=O)c3nccs3)CC2)C1 [Cpd 405, 1-[1-({4-[(2,3-Dichlorobenzyl)oxy]-3-fluorophenyl}carbonyl)azetidin-3-yl]-4-(1,3-thiazol-2-ylcarbonyl)piperazine]
1271	–	O=C(c1ccc(SCc2cccc(Cl)c2)cc1)N1CC(N2CCN(C(=O)c3nccs3)CC2)C1 [Cpd 412, 1-[1-({4-[(3-Chlorobenzyl)sulfanyl]phenyl}carbonyl)azetidin-3-yl]-4-(1,3-thiazol-2-ylcarbonyl)piperazine]
1693	–	O=C(c1ccc(SCc2cccc(Cl)c2Cl)cc1)N1CC(N2CCN(C(=O)c3nccs3)CC2)C1 [Cpd 413, 1-[1-({4-[(2,3-Dichlorobenzyl)sulfanyl]phenyl}carbonyl)azetidin-3-yl]-4-(1,3-thiazol-2-ylcarbonyl)piperazine]
1608	–	O=C(c1ccc(SCc2ccc(Cl)c(Cl)c2)cc1)N1CC(N2CCN(C(=O)c3nccs3)CC2)C1 [Cpd 414, 1-[1-({4-[(3,4-Dichlorobenzyl)sulfanyl]phenyl}carbonyl)azetidin-3-yl]-4-(1,3-thiazol-2-ylcarbonyl)piperazine]
1629	–	O=C(c1ccc(SCc2ccc(Cl)cc2)cc1)N1CC(N2CCN(C(=O)c3nccs3)CC2)C1 [Cpd 415]
–	1066	O=C(c1ccc(CSc2cccc(Cl)c2)cc1)N1CC(N2CCN(C(=O)c3nccs3)CC2)C1 [Cpd 454]
–	1013	O=C(c1ccc(CNc2cccc(Cl)c2)cc1)N1CC(N2CCN(C(=O)c3nccs3)CC2)C1 [Cpd 455]
1285	–	O=C(c1ccc(Oc2cccc(Cl)c2)c(F)c1)N1CC(N2CCN(C(=O)c3nccs3)CC2)C1 [Cpd 875]
–	1442	O=C(c1ccc(OCc2cccc(Cl)c2)cc1)N1CC(N2CCN(C(=O)c3nccs3)CC2)C1 [Cpd 957]
–	1213	O=C(c1ccc(OCc2ccc(Cl)s2)cc1)N1CC(N2CCN(C(=O)c3nccs3)CC2)C1 [Cpd 962]
–	1373	O=C(c1ccc(OCc2ccc3ccccc3n2)cc1)N1CC(N2CCN(C(=O)c3nccs3)CC2)C1 [Cpd 967]
–	1116	O=C(c1ccc(Cc2ccc(C(F)(F)F)cc2)cc1)N1CC(N2CCN(C(=O)c3nccs3)CC2)C1 [Cpd 985]
–	1014	O=C(c1ccc2c(c1)CCN2Cc1ccccc1)N1CC(N2CCN(C(=O)c3nccs3)CC2)C1 [Cpd 994, 1-Benzyl-5-({3-[4-(1,3-thiazol-2-ylcarbonyl)piperazin-1-yl]azetidin-1-yl}carbonyl)-2,3-dihydro-1H-indole]
–	1080	O=C(c1ccc(Cc2cccc(C(F)(F)F)c2)cc1)N1CC(N2CCN(C(=O)c3nccs3)CC2)C1 [Cpd 995]
–	1014	Cn1cc(Cc2ccc(F)cc2)c2ccc(C(=O)N3CC(N4CCN(C(=O)c5nccs5)CC4)C3)cc21 [Cpd 1026]
–	1228	O=C(c1ccc2nc(-c3ccccc3)sc2c1)N1CC(N2CCN(C(=O)c3nccs3)CC2)C1 [Cpd 1125, 2-Phenyl-6-({3-[4-(1,3-thiazol-2-ylcarbonyl)piperazin-1-yl]azetidin-1-yl}carbonyl)-1,3-benzothiazole]
–	1314	Cn1cc(-c2cccc(F)c2)c2ccc(C(=O)N3CC(N4CCN(C(=O)c5nccs5)CC4)C3)cc21 [Cpd 1142]
–	1276	O=C(c1ccc2c(-c3cccc(F)c3)c[nH]c2c1)N1CC(N2CCN(C(=O)c3nccs3)CC2)C1 [Cpd 1319]
–	1086	O=C(c1ccc(-c2nc(-c3ccccc3Cl)cs2)cc1)N1CC(N2CCN(C(=O)c3nccs3)CC2)C1 [Cpd 1328]
